The results in this text go back to US4076814A, “Preventive and curative compositions against mycoplasmosis” (Sankyo Company Limited, priority 1975, dated 1978).

Values after ≈ are worked out from the molar mass of the structure shown.

Common to all, as to format: cell-based
The subject of one assay is Mycoplasma pulmonis. Nature of the assay: Antimicrobial test, conventional agar plate dilution method, Mycoplasma pulmonis. Particulars: for MIC: Mycoplasma, read-out: Minimum Inhibitory Concentration, Mycoplasma pulmonis. An excerpt: (§1) ANTIMICROBIAL TEST AGAINST THREE STRAINS OF MYCOPLASMA
(§2) The test was effected by a conventional agar plate dilution method using the indicated strains of mycoplasma. The dithiocarbamic acid derivatives as shown below with Compound Nos. were employed in the test.

A further assay relates to Mycoplasma gallisepticum. Nature of the assay: Antimicrobial test, conventional agar plate dilution method, Mycoplasma gallisepticum. Particulars: for MIC: Mycoplasmoides gallisepticum, read-out: Minimum Inhibitory Concentration, Mycoplasma gallisepticum.
Excerpt: as §1, §2

The test system of another assay is Mycoplasma hyorhinis. The assay is described as follows: Antimicrobial test, conventional agar plate dilution method, Mycoplasma hyorhinis. Particulars: for MIC: Mycoplasma, read-out: Minimum Inhibitory Concentration, Mycoplasma hyorhinis.
Excerpt: as §1, §2

For the molecule `CN(C)C(=S)SCCC(=O)C(C)(C)C` [compound 108, 2-Pivaroylethyl dimethyldithiocarbamate], the MIC in the assay with Mycoplasma pulmonis, with Mycoplasma gallisepticum and in the assay on Mycoplasma hyorhinis was 0.2 µg/mL (≈ 0.857 µM) in each case.
Take `CN(C)C(=S)SCCC(=O)CCc1ccccc1` [compound 123, 2-Hydrocinnamoylethyl dimethyldithiocarbamate]: the MIC with Mycoplasma pulmonis, in the assay on Mycoplasma gallisepticum and with Mycoplasma hyorhinis was 0.2 µg/mL (≈ 0.711 µM) in each case.
Consider `CCN(CC)C(=S)SCCC(=O)CCc1ccccc1O` [compound 125, 2-(o-Hydroxyhydrocinnamoyl)ethyl diethyldithiocarbamate], for which the MIC in the assay with Mycoplasma pulmonis, in the assay with Mycoplasma gallisepticum and in the assay on Mycoplasma hyorhinis was 0.2 µg/mL (≈ 0.614 µM) each time.
On to `CCN(CC)C(=S)SCCC(=O)CCc1ccc(OC)cc1` [compound 129, 2-(p-Methoxyhydrocinnamoyl)ethyl diethyldithiocarbamate], for which the MIC in the assay on Mycoplasma pulmonis, in the assay with Mycoplasma gallisepticum and with Mycoplasma hyorhinis was 0.2 µg/mL (≈ 0.589 µM) each time.
As for `CN(C)C(=S)SCCC(=O)C=Cc1ccccc1` [compound 134, 2-Cinnamoylethyl dimethyldithiocarbamate], the MIC in the assay with Mycoplasma pulmonis, in the assay on Mycoplasma gallisepticum and in the assay on Mycoplasma hyorhinis was 0.2 µg/mL (≈ 0.716 µM) each time.
On to `CCN(CC)C(=S)SCCC(=O)C=Cc1ccccc1` [compound 135, 2-Cinnamoylethyl diethyldithiocarbamate], for which the MIC with Mycoplasma pulmonis, in the assay on Mycoplasma gallisepticum and with Mycoplasma hyorhinis was 0.2 µg/mL (≈ 0.65 µM) throughout.
`CCN(CC)C(=S)SCCC(=O)C=Cc1ccc(C)cc1` [compound 142, 2-(p-Methylcinnamoyl)ethyl diethyldithiocarbamate]: the MIC with Mycoplasma pulmonis, in the assay on Mycoplasma gallisepticum and in the assay on Mycoplasma hyorhinis was 0.2 µg/mL (≈ 0.622 µM) in each case.
Turning to `CC1=C(C=CC(=O)CCSC(=S)N(C)C)C(C)(C)CCC1` [compound 146, 2-[β-(2,6,6-Trimethylcyclohexene-1-yl)acryloyl]-ethyl dimethyldithiocarbamate], the MIC in the assay with Mycoplasma pulmonis, with Mycoplasma gallisepticum and with Mycoplasma hyorhinis was 0.39 µg/mL (≈ 1.2 µM) each time.
In the case of `CCN(CC)C(=S)SCC(C)C(C)=O` (stereo not drawn) [compound 148, 2-Acetylpropyl diethyldithiocarbamate], the MIC in the assay on Mycoplasma pulmonis, in the assay with Mycoplasma gallisepticum and in the assay on Mycoplasma hyorhinis was 0.05 µg/mL (≈ 0.214 µM) in each case.
For `CC(=O)C(C)CSC(=S)N1CCCCC1` (stereo not drawn) [compound 149, 2-Acetylpropyl 1-piperidinecarbodithioate], the MIC with Mycoplasma pulmonis was found to be 0.2 µg/mL (≈ 0.815 µM); in the assay on Mycoplasma gallisepticum it was 0.2 µg/mL (≈ 0.815 µM); with Mycoplasma hyorhinis, 0.05 µg/mL (≈ 0.204 µM).
For the molecule `CCCCCCCCCCC(CSC(=S)N(C)C)C(C)=O` (stereo not drawn) [compound 152, 2-Acetyldodecyl dimethyldithiocarbamate], the MIC in the assay on Mycoplasma pulmonis is 0.1 µg/mL (≈ 0.302 µM); in the assay on Mycoplasma gallisepticum, 0.1 µg/mL (≈ 0.302 µM); with Mycoplasma hyorhinis, 0.39 µg/mL (≈ 1.18 µM).
As to `CC(=O)C(CSC(=S)N(C)C)Cc1ccccc1` (stereo not drawn) [compound 156, 2-Acetyl-2-benzylethyl dimethyldithiocarbamate], the MIC in the assay with Mycoplasma pulmonis, in the assay with Mycoplasma gallisepticum and in the assay on Mycoplasma hyorhinis was 0.2 µg/mL (≈ 0.711 µM) throughout.
Turning to `CC(=O)C(CSC(=S)N(C)C)c1ccccc1` (stereo not drawn) [compound 164, 2-Acetyl-2-phenylethyl dimethyldithiocarbamate], the MIC with Mycoplasma pulmonis, with Mycoplasma gallisepticum and in the assay with Mycoplasma hyorhinis was 0.1 µg/mL (≈ 0.374 µM) each time.
For the molecule `Cc1cc(CSC(=S)N(C)C)cc(C)c1O` [compound 183, 4-Hydroxy-3,5-dimethylbenzyl dimethyldithiocarbamate], the MIC with Mycoplasma pulmonis, in the assay with Mycoplasma gallisepticum and in the assay on Mycoplasma hyorhinis was 0.2 µg/mL (≈ 0.783 µM) each time.
`Cc1cc(CSC(=S)N2CCCC2)cc(C)c1O` [compound 187, 4-Hydroxy-3,5-dimethylbenzyl 1-pyrrolidinecarbodithioate]: the MIC in the assay with Mycoplasma pulmonis, with Mycoplasma gallisepticum and in the assay on Mycoplasma hyorhinis was 0.78 µg/mL (≈ 2.77 µM) throughout.
`Cc1cc(CSC(=S)N2CCCC2C(=O)OCc2ccccc2)cc(C)c1O` (stereo not drawn) [compound 191, 4-Hydroxy-3,5-dimethylbenzyl 2-benzyloxycarbonyl-1-pyrrolidinecarbodithioate]: the MIC worked out at 1.56 µg/mL (≈ 3.75 µM) in the assay on Mycoplasma pulmonis, 1.56 µg/mL (≈ 3.75 µM) in the assay on Mycoplasma gallisepticum and 3.13 µg/mL (≈ 7.53 µM) with Mycoplasma hyorhinis.
In the case of `Cc1cc(CSC(=S)N2CCCCC2)cc(C)c1O` [compound 192, 4-Hydroxy-3,5-dimethylbenzyl 1-piperidinecarbodithioate], the MIC with Mycoplasma pulmonis was 0.39 µg/mL (≈ 1.32 µM); in the assay on Mycoplasma gallisepticum it was 0.39 µg/mL (≈ 1.32 µM); in the assay with Mycoplasma hyorhinis it was 0.1 µg/mL (≈ 0.338 µM).
Take `Cc1cc(CSC(=S)N2CCOCC2)cc(C)c1O` [compound 194, 4-Hydroxy-3,5-dimethylbenzyl 4-morpholinecarbodithioate]: the MIC in the assay with Mycoplasma pulmonis was 1.56 µg/mL (≈ 5.24 µM); with Mycoplasma gallisepticum it was 1.56 µg/mL (≈ 5.24 µM); in the assay with Mycoplasma hyorhinis, 0.78 µg/mL (≈ 2.62 µM).
For `Cc1cc(CSC(=S)N2CCN(C)CC2)cc(C)c1O.Cl` [compound 196, 4-Hydroxy-3,5-dimethylbenzyl 4-methyl-1-piperazinecarbodithioate hydrochloride], the values for the MIC in the assay with Mycoplasma pulmonis, with Mycoplasma gallisepticum and in the assay on Mycoplasma hyorhinis were 1.56 µg/mL, 1.56 µg/mL and 0.39 µg/mL, respectively.
For the molecule `Cc1cc(C)c(O)c(CSC(=S)N(C)C)c1` [compound 197, 2-Hydroxy-3,5-dimethylbenzyl dimethyldithiocarbamate], the figures for the MIC with Mycoplasma pulmonis, in the assay on Mycoplasma gallisepticum and in the assay on Mycoplasma hyorhinis were 0.39 µg/mL (≈ 1.53 µM), 0.39 µg/mL (≈ 1.53 µM) and 0.2 µg/mL (≈ 0.783 µM), respectively.
As to `CCN(CC)C(=S)SCc1cc(C)cc(C)c1O` [compound 198, 2-Hydroxy-3,5-dimethylbenzyl diethyldithiocarbamate], the MIC in the assay on Mycoplasma pulmonis is 0.39 µg/mL (≈ 1.38 µM); in the assay on Mycoplasma gallisepticum, 0.39 µg/mL (≈ 1.38 µM); with Mycoplasma hyorhinis, 0.2 µg/mL (≈ 0.706 µM).
For `CCN(CC)C(=S)SCc1cc(C)cc(C)c1O` [compound 199, 2-Hydroxy-3,5-dimethylbenzyl diethyldithiocarbamate], the “Minimum Inhibitory Concentration, Mycoplasma pulmonis” value in the assay with Mycoplasma pulmonis amounted to 0.39 µg/mL. Moreover, the “Minimum Inhibitory Concentration, Mycoplasma gallisepticum” value with Mycoplasma gallisepticum was found to be 0.39 µg/mL. The “Minimum Inhibitory Concentration, Mycoplasma hyorhinis” value in the assay on Mycoplasma hyorhinis is 0.39 µg/mL.
For the molecule `Cc1cc(CSC(=S)N2CCCCC2)cc(C(C)(C)C)c1O` [compound 207, 4-Hydroxy-3-t-butyl-5-methylbenzyl 1-piperidinecarbodithioate], the MIC in the assay with Mycoplasma pulmonis, in the assay on Mycoplasma gallisepticum and in the assay with Mycoplasma hyorhinis was 0.1 µg/mL (≈ 0.296 µM) in each case.
As to `CC(C)c1cc(CSC(=S)N2CCOCC2)cc(C(C)C)c1O` [compound 210, 4-Hydroxy-3,5-di-isopropylbenzyl 4-morpholinecarbodithioate], the MIC in the assay on Mycoplasma pulmonis, in the assay with Mycoplasma gallisepticum and in the assay on Mycoplasma hyorhinis was 0.39 µg/mL (≈ 1.1 µM) each time.
Regarding `CN(C)C(=S)SCc1cc(C(C)(C)C)c(O)c(C(C)(C)C)c1` [compound 211, 4-Hydroxy-3,5-di-t-butylbenzyl dimethyldithio carbamate], the MIC in the assay on Mycoplasma pulmonis stood at 0.78 µg/mL (≈ 2.3 µM); with Mycoplasma gallisepticum, 0.78 µg/mL (≈ 2.3 µM); in the assay with Mycoplasma hyorhinis, 0.39 µg/mL (≈ 1.15 µM).
`CCN(CC)C(=S)SCc1cc(C(C)(C)C)c(O)c(C(C)(C)C)c1` [compound 212, 4-Hydroxy-3,5-di-t-butylbenzyl diethyldithiocarbamate]: the MIC with Mycoplasma pulmonis, in the assay on Mycoplasma gallisepticum and in the assay with Mycoplasma hyorhinis was 1.56 µg/mL (≈ 4.24 µM) each time.
`CC(C)(C)c1cc(CSC(=S)N2CCCCC2)cc(C(C)(C)C)c1O` [compound 218, 4-Hydroxy-3,5-di-t-butylbenzyl 1-piperidinecarbodithioate]: the MIC turned out to be 0.39 µg/mL (≈ 1.03 µM) in the assay with Mycoplasma pulmonis, 0.78 µg/mL (≈ 2.05 µM) with Mycoplasma gallisepticum and 0.39 µg/mL (≈ 1.03 µM) in the assay on Mycoplasma hyorhinis.
With `CC(C)(C)c1cc(CSC(=S)N2CCOCC2)cc(C(C)(C)C)c1O` [compound 219, 4-Hydroxy-3,5-di-t-butylbenzyl 4-morpholinecarbodithioate], the MIC was 0.2 µg/mL (≈ 0.524 µM) with Mycoplasma pulmonis, 0.2 µg/mL (≈ 0.524 µM) in the assay with Mycoplasma gallisepticum and 0.1 µg/mL (≈ 0.262 µM) in the assay on Mycoplasma hyorhinis.
Regarding `CC(C)(C)c1cc(CSC(=S)N2CCCCCC2)cc(C(C)(C)C)c1O` [compound 220, 4-Hydroxy-3,5-di-t-butylbenzyl 1-hexamethyleneiminecarbodithioate], the MIC with Mycoplasma pulmonis, with Mycoplasma gallisepticum and in the assay with Mycoplasma hyorhinis was 0.78 µg/mL (≈ 1.98 µM) throughout.
Consider `CC(C)(C)c1cc(C(SC(=S)N2CCCCC2)c2ccccc2)cc(C(C)(C)C)c1O` (stereo not drawn) [compound 225, 4-Hydroxy-3,5-di-t-butyl-α-phenylbenzyl 1-piperidinecarbodithioate], for which the MIC turned out to be 0.2 µg/mL (≈ 0.439 µM) in the assay on Mycoplasma pulmonis, 0.39 µg/mL (≈ 0.856 µM) in the assay with Mycoplasma gallisepticum and 0.39 µg/mL (≈ 0.856 µM) in the assay with Mycoplasma hyorhinis.
Consider `COc1cc(CSC(=S)N2CCCCC2)cc(OC)c1O` [compound 229, 4-Hydroxy-3,5-dimethoxybenzyl 1-piperidinecarbodithioate], for which the MIC in the assay with Mycoplasma pulmonis, with Mycoplasma gallisepticum and with Mycoplasma hyorhinis was 0.39 µg/mL (≈ 1.19 µM) in each case.
In the case of `COc1cc(CSC(=S)N2CCOCC2)cc(OC)c1O` [compound 230, 4-Hydroxy-3,5-dimethoxybenzyl 4-morpholinecarbodithioate], the figures for the MIC in the assay on Mycoplasma pulmonis, in the assay on Mycoplasma gallisepticum and with Mycoplasma hyorhinis were 1.56 µg/mL (≈ 4.74 µM), 1.56 µg/mL (≈ 4.74 µM) and 0.78 µg/mL (≈ 2.37 µM), respectively.
As for `CN(C)C(=S)SCc1cc(Cl)c(O)c(Cl)c1` [compound 232, 4-Hydroxy-3,5-dichlorobenzyl dimethyldithiocarbamate], the values for the MIC in the assay on Mycoplasma pulmonis, in the assay with Mycoplasma gallisepticum and with Mycoplasma hyorhinis were 0.39 µg/mL (≈ 1.32 µM), 0.39 µg/mL (≈ 1.32 µM) and 0.2 µg/mL (≈ 0.675 µM), respectively.
`Oc1c(Cl)cc(CSC(=S)N2CCCCC2)cc1Cl` [compound 234, 4-Hydroxy-3,5-dichlorobenzyl 1-piperidinecarbodithioate]: the MIC with Mycoplasma pulmonis is 3.13 µg/mL (≈ 9.31 µM); with Mycoplasma gallisepticum, 3.13 µg/mL (≈ 9.31 µM); in the assay with Mycoplasma hyorhinis, 1.56 µg/mL (≈ 4.64 µM).
`Oc1c(Cl)cc(CSC(=S)N2CCOCC2)cc1Cl` [compound 235, 4-Hydroxy-3,5-dichlorobenzyl 4-morpholinecarbodithioate]: the MIC with Mycoplasma pulmonis, with Mycoplasma gallisepticum and with Mycoplasma hyorhinis was 1.56 µg/mL (≈ 4.61 µM) in each case.
Take `Cc1cc(CSC(=S)N(C)C)cc(CN(C)C)c1O` [compound 236, 4-Hydroxy-3-dimethylaminomethyl-5-methylbenzyl dimethyldithiocarbamate]: the MIC in the assay on Mycoplasma pulmonis, with Mycoplasma gallisepticum and in the assay on Mycoplasma hyorhinis was 0.2 µg/mL (≈ 0.67 µM) in each case.
